Source: US20170175161A1, “RAPID DETERMINATION OF BACTERIAL SUSCEPTIBILITY TO AN […] THE POINT OF CARE” (Point of Care Diagnostics, LLC, priority 2014, published 2017)

Tested on: bacterial infection within the sample (sample 101, e.g. urine)
Assay: assay 200: antibiotic susceptibility of a bacterial infection by ATP bioluminescence
Assay type: cell-based
Description: To perform assay 200 to determine antibiotic susceptibility of a bacterial infection within the sample, a second test sample 204 and third test sample 205 may be obtained from sample 101 by applying 50 to 400 μL of first reagent 202 and 50 to 300 μL of culture medium 203 to 1 to 20 μL of sample 101 to create second test sample 204 and to 1 to 20 μL of sample 101 to create third test sample 205. First reagent 202 may include 10 to 100 mM of Tris Acetate as a buffer, 0.0001 to 0.1% of Benzethonium Chloride, and 0.5 to 4 Units/ml of Apyrase. First reagent 202 may cause non-bacterial ATP to be released and removed, in a manner similar to that as described herein. Culture medium 203 may include 50 to 300 μL of Tryptic Soy Broth. Culture medium 203 may be applied to second test sample 204 and third test sample 205 and may promote the growth and robustness of the bacterial population, in a manner similar to that described herein.
First antibiotic 206 may be applied to third test sample 205. In this example, first antibiotic 206 may include 10 to 100 μg of Amoxicillin. Second test sample 204 and the third test sample 205 may then be incubated for ˜40 minutes at 37 degrees Celsius.
After incubation, second reagent 207 (e.g., 100 to 500 μL) may be applied to second test sample 204 and third test sample 205. Second reagent 207 may include 10 to 100 mM of Tris Acetate as a buffer and 2 to 30 mg/L of Luciferase, 2 to 30 mg/L of Luciferin, and 0.1 to 0.5% of Chlorhexidine di-gluconate. […]
A Berthold Junior Luminometer may be used to measure a first bioluminescent signal (and associated strength) from third test sample 205 and a second bioluminescent signal (and associated strength) from second test sample 204 (e.g., based on released ATP, etc.). In a manner similar to that described above, the strength associated with the first bioluminescent signal and/or the strength associated with the second bioluminescent signal may be proportional to the respective quantity and/or concentration of ATP and/or quantity of bacterial cells within third test sample 205 and/or second test sample 204, respectively. […] In this example, the strength of the first bioluminescent signal was measured to be 66,823 RLU's and the strength of the second bioluminescent signal was measured to be 62,535 RLU's. Thus, the quantity of bacteria cells in third test sample 205 was ˜62,000 cfu/ml and the quantity of bacteria cells in the second test sample 204 was ˜67,000 cfu/ml.
In the event that the bacteria, within third test sample 205, are susceptible to first antibiotic 206, the quantity of bacterial cells in third test sample 205 may be less than the quantity of bacterial cells in second test sample 204. […]

CC1(C)S[C@@H]2[C@H](NC(=O)[C@H](N)c3ccc(O)cc3)C(=O)N2[C@H]1C(=O)O [Amoxicillin]
susceptibility of the bacteria to the antibiotic (10-100 μg, ΔL compared to second threshold >30% difference): may not be susceptible | strength of the first bioluminescent signal (third test sample 205, with antibiotic) (10 to 100 μg antibiotic, incubated ~40 minutes at 37 degrees Celsius, Berthold Junior Luminometer, baseline second test sample 62,535 RLU's): 66,823 RLU's | quantity of bacteria cells in third test sample 205 (10 to 100 μg antibiotic, ~40 minutes at 37 degrees Celsius, baseline second test sample ~67,000 cfu/ml): ~62,000 cfu/ml | ΔL, difference between first and second bioluminescent signal strength (antibiotic-treated vs baseline sample, second threshold >30% difference): 7.5%
